Key:
[1] = 101.33 kPa, Liquid; for mass density: Vibrating tube method
[2] = refractive index (Na D-line) (dimensionless); conditions: 101.33 kPa, Liquid, Standard Abbe refractometry

CCCCCCCCCCCCOS(=O)(=O)[O-].CCCCCCCCCCn1cc[n+](CCC#N)c1 [3-(2-cyanoethyl)-1-decylimidazolium dodecylsulfate]
Conditions	mass density, [1] [kg/m3]	refractive index, [2]	viscosity, [1] [mPa·s]
293.15 K	1053	–	–
298.15 K	1050.4	1.47447	–
303.15 K	1046.9	1.47296	16145
308.15 K	1043.3	1.47142	10417
313.15 K	1041.8	1.46972	6231
318.15 K	1038.6	1.46813	3951
323.15 K	1036.1	1.46678	2583
328.15 K	1034.3	1.46532	1757
333.15 K	1032.5	1.46391	1252
338.15 K	1029.9	–	904
343.15 K	1027.3	–	588
348.15 K	1025.8	–	418
353.15 K	1023.9	–	296

CCCCCCCCCCn1cc[n+](CCC#N)c1.O=C([O-])c1cccc(S(=O)(=O)O)c1 [3-(2-cyanoethyl)-1-decylimidazolium 3-sulfobenzoate]
Conditions	mass density, [1] [kg/m3]	refractive index, [2]	viscosity, [1] [mPa·s]
293.15 K	1136.6	–	–
298.15 K	1133.5	1.51306	17650
303.15 K	1129.9	1.51163	11449
308.15 K	1126.3	1.50998	7159
313.15 K	1123.2	1.50871	4606
318.15 K	1119.8	1.50706	3028
323.15 K	1116.2	1.50582	1977
328.15 K	1112.7	1.5045	1431
333.15 K	1109.5	1.50322	944
338.15 K	1105.9	–	623
343.15 K	1102.6	–	431
348.15 K	1099.3	–	294
353.15 K	1095.8	–	198

CCCCCCCCCCCCOS(=O)(=O)[O-].CCCCn1cc[n+](CCC#N)c1 [1-butyl-3-(2-cyanoethyl)-1H-imidazol-3-ium dodecyl sulfate]
Conditions	mass density, [1] [kg/m3]	refractive index, [2]	viscosity, [1] [mPa·s]
293.15 K	1128.9	–	13007
298.15 K	1123.2	1.48791	7875
303.15 K	1119.8	1.48619	4746
308.15 K	1116.1	1.48443	2938
313.15 K	1112.2	1.48232	1740
318.15 K	1108.9	1.48009	1144
323.15 K	1105	1.47842	768
328.15 K	1101.9	1.47695	485
333.15 K	1097.7	1.47487	338
338.15 K	1093.6	–	235
343.15 K	1089.7	–	162
348.15 K	1086.3	–	114
353.15 K	1082.2	–	76

CCCCn1cc[n+](CCC#N)c1.O=S(=O)([O-])c1ccccc1 [1-butyl-3-(2-cyanoethyl)-1H-imidazolium benzenesulfonate]
Conditions	mass density, [1] [kg/m3]	refractive index, [2]	viscosity, [1] [mPa·s]
293.15 K	1240.3	–	4612
298.15 K	1236.8	1.53378	2752
303.15 K	1233.4	1.53237	1806
308.15 K	1230.2	1.53113	1203
313.15 K	1226.3	1.52975	792
318.15 K	1223.7	1.52824	505
323.15 K	1220.3	1.52684	321
328.15 K	1217.1	1.52544	214
333.15 K	1213.5	1.52403	152
338.15 K	1210.1	–	109
343.15 K	1207.1	–	78
348.15 K	1204.4	–	54
353.15 K	1201.3	–	38

From the NIST ThermoML archive (doi:10.1021/je400849a)
